The text below walks through data of patent publication US4477444A, “Antracycline glycosides, pharmaceutical compositions and method of use” (priority 1981, dated 1984).

A short description of data set [1]: Activity against P388 ascitic leukemia in mice, i.p. treatment on day 1 after tumor inoculation. The data set is classed as in vivo. The note with it: mouse, in vivo, ip; for MTD: i.p. day 1, P388 leukemia mice, read-out: maximal tolerated dose. An excerpt: (§1) Activity against P388 ascitic leukemia of XOO-0148 and
(§2) Treatment i.p. on day 1 after tumor inoculation
(§3) ^(a) T/C % = median survival time of treated mice/median survival tim

The test system of a further data set is P388 leukemia. The data set is described as above. The data set is classed as in vivo. The note with it: for antitumor activity (overall conclusion): conclusion from all studies; for potency relative to the corresponding parent compounds / toxicity relative to the corresponding parent compounds: i.p. day 1, P388 leukemia mice.
From the text: as §1, §2, §3

In the next data set the test system is Hela cells. The experiment in a line: Activity on Hela cells cloning efficiency in vitro, treatment for 24 hours. The note with it: for cytotoxicity relative to daunorubicin and doxorubicin: Hela cells cloning efficiency in vitro; for % of controls (Hela cells cloning efficiency): 24 hours. The data set is classed as cell-based.
The nature of data set [2]: Activity against i.v. inoculated Gross leukemia in mice, i.v. treatment on day 1 after tumor inoculation. The data set is classed as in vivo. The note with it: mouse, in vivo, iv; i.v. day 1, Gross leukemia mice; read-out: maximal tolerated dose. The procedure:
(§4) Compound XOO-0148 was also tested on the i.v. inoculated Gross leukemia. Mice were treated i.v. on day 1.
(§5) Activity against Gross leukemia of XOO-0148
(§6) Treatment i.v. on day 1 after tumor inoculation
as §3

The next data set deals with Gross leukemia. The data set is described as above. The data set is classed as in vivo. Here is the method:
as §4, §5, §6, §3

[3] abbreviates: dose 12.5 (dose unit not given).

Structures are written as SMILES.

For `COc1cccc2c1C(=O)c1c(O)c3c(c(O)c1C2=O)C[C@@](O)(C(=O)CO)C[C@@H]3O[C@H]1C[C@@H](N)C[C@H](C)O1` [XOO-0155, 4'-deoxy-3'-epi-doxorubicin], the mortality in data set [1] (22.5 mg/kg i.p. day 1, read-out: Toxicity Death) amounted to 10%. Besides, in data set [1], the MTD turned out to be 22.5 mg/kg. Besides, in the data set on P388 leukemia (15 mg/kg i.p. day 1), the “T/C % (median survival time of treated mice/median survival time of controls x100)” value worked out at 195% and the “Toxicity Death” value is 0/10. The “T/C % (median survival time of treated mice/median survival time of controls x100)” value in the data set with P388 leukemia (22.5 mg/kg i.p. day 1) came out at 235%. The “antitumor effect relative to doxorubicin” value with P388 leukemia (22.5 mg/kg i.p. vs doxorubicin at 10 mg/kg) is “lower than that observed after treatment with doxorubicin”. In the data set with P388 leukemia (33.7 mg/kg i.p. day 1), the “T/C % (median survival time of treated mice/median survival time of controls x100)” value amounted to 260% and the “Toxicity Death” value is listed as 4/10. Moreover, in the data set on P388 leukemia (50 mg/kg i.p. day 1), the “T/C % (median survival time of treated mice/median survival time of controls x100)” value was 60% and the “Toxicity Death” value was 8/10. Besides, in the data set with P388 leukemia, the “antitumor activity (overall conclusion)” value is “remarkable antitumor activity”, the “potency relative to the corresponding parent compounds” value was “less potent than the corresponding parent compounds” and the “toxicity relative to the corresponding parent compounds” value was “less toxic”. In addition, the antitumor effect result with P388 leukemia (maximal tolerated dose 22.5 mg/kg i.p.) was “remarkable antitumor effect”. For the same compound, the “cytotoxicity relative to daunorubicin and doxorubicin” value in the data set with Hela cells was “less cytotoxic than daunorubicin and doxorubicin”. Also, the “% of controls (Hela cells cloning efficiency)” value (“% of controls” below) in the data set with Hela cells (dose 100 (dose unit not given)) is on record as 12,5%.

With `COc1cccc2c1C(=O)c1c(O)c3c(c(O)c1C2=O)C[C@@](O)(C(=O)CO)C[C@@H]3O[C@H]1C[C@H](N)[C@H](O)[C@H](C)O1` [Doxorubicin, doxorubicin, reference compound], in data set [1], the MTD is 10 mg/kg. Moreover, the “T/C % (median survival time of treated mice/median survival time of controls x100)” value with P388 leukemia (4.4 mg/kg i.p. day 1) was 245%; in the data set on P388 leukemia (6.6 mg/kg i.p. day 1), 255%; with P388 leukemia (10 mg/kg i.p. day 1), 345%. Further, the “Toxicity Death” value with P388 leukemia (4.4 mg/kg i.p. day 1), in the data set with P388 leukemia (6.6 mg/kg i.p. day 1) and in the data set with P388 leukemia (10 mg/kg i.p. day 1) was 0/10 in each case. Moreover, the “% of controls” value in the data set with Hela cells (setting [3]) is reported as 63,93%; in the data set on Hela cells (dose 25 (dose unit not given)), 26,22%.

As for `COc1cccc2c1C(=O)c1c(O)c3c(c(O)c1C2=O)C[C@@](O)(C(C)=O)C[C@@H]3O[C@H]1C[C@H](N)[C@H](O)[C@H](C)O1` [Daunorubicin, daunorubicin, reference compound], the figures for the MTD in data set [2] and in data set [1] were 6 mg/kg and 2.9 mg/kg, respectively. The “T/C % (median survival time of treated mice/median survival time of controls x100)” value with Gross leukemia (4.6 mg/kg i.v. day 1) is reported as 180%; in the data set on Gross leukemia (6 mg/kg i.v. day 1), 250%; with Gross leukemia (7.8 mg/kg i.v. day 1), 250%; in the data set on P388 leukemia (2.9 mg/kg i.p. day 1), 155%; with P388 leukemia (4.4 mg/kg i.p. day 1), 160%; with P388 leukemia (6.6 mg/kg i.p. day 1), 150%. The “Toxicity Death” value in the data set with Gross leukemia (4.6 mg/kg i.v. day 1) was 0/10; in the data set with Gross leukemia (6 mg/kg i.v. day 1), 0/10; in the data set with Gross leukemia (7.8 mg/kg i.v. day 1) it was 3/10; with P388 leukemia (2.9 mg/kg i.p. day 1), 0/10; in the data set on P388 leukemia (4.4 mg/kg i.p. day 1), 2/10; in the data set with P388 leukemia (6.6 mg/kg i.p. day 1), 5/10. For the same compound, the results for the “% of controls” value in the data set on Hela cells (dose 6.2 (dose unit not given)) and in the data set on Hela cells (setting [3]) were 90,48% and 44,19%, respectively.

As for `COc1cccc2c1C(=O)c1c(O)c3c(c(O)c1C2=O)C[C@@](O)(C(C)=O)C[C@@H]3O[C@H]1C[C@@H](N)C[C@H](C)O1` [XOO-0148, 4'-deoxy-3'-epi-daunorubicin], the MTD in data set [2] amounted to 22.5 mg/kg. Besides, the “T/C % (median survival time of treated mice/median survival time of controls x100)” value in the data set on Gross leukemia (22.5 mg/kg i.v. day 1) is reported as 240%; in the data set on Gross leukemia (33.7 mg/kg i.v. day 1) it was 150%; in the data set on Gross leukemia (50 mg/kg i.v. day 1), 120%; in the data set with P388 leukemia (5.1 mg/kg i.p. day 1), 110%; with P388 leukemia (9.2 mg/kg i.p. day 1), 120%; in the data set with P388 leukemia (16.6 mg/kg i.p. day 1), 130%. In addition, in the data set on P388 leukemia (30 mg/kg i.p. day 1), the “T/C % (median survival time of treated mice/median survival time of controls x100)” value is given as 145%. Also, the “Toxicity Death” value in the data set with Gross leukemia (22.5 mg/kg i.v. day 1) was 0/10; in the data set on Gross leukemia (33.7 mg/kg i.v. day 1), 6/10; in the data set on Gross leukemia (50 mg/kg i.v. day 1), 10/10; with P388 leukemia (5.1 mg/kg i.p. day 1) it was 0/10; in the data set with P388 leukemia (9.2 mg/kg i.p. day 1) it was 0/10; with P388 leukemia (16.6 mg/kg i.p. day 1), 0/10. For the same compound, the “Toxicity Death” value in the data set with P388 leukemia (30 mg/kg i.p. day 1) is recorded as 0/10. In addition, the “antitumor activity relative to daunorubicin” value in the data set on Gross leukemia (22.5 mg/kg i.v. vs daunorubicin at 6 mg/kg) and in the data set with P388 leukemia (30 mg/kg i.p. vs daunorubicin at 2.9 mg/kg) was “about as active as daunorubicin” in each case. Further, in the data set on Gross leukemia (i.v. day 1, Gross leukemia mice), the “toxicity relative to daunorubicin” value is “less toxic than daunorubicin”. Also, in the data set on P388 leukemia (30 mg/kg i.p.), the “toxicity at the maximal dose tested” value was “not toxic”. Also, the “antitumor activity (overall conclusion)” value in the data set on P388 leukemia is “remarkable antitumor activity”. Also, the “potency relative to the corresponding parent compounds” value in the data set on P388 leukemia is “less potent than the corresponding parent compounds”. For the same compound, the “toxicity relative to the corresponding parent compounds” value with P388 leukemia is recorded as “less toxic”. For the same compound, in the data set on Hela cells, the “cytotoxicity relative to daunorubicin and doxorubicin” value was “less cytotoxic than daunorubicin and doxorubicin”. Besides, the “% of controls” value in the data set with Hela cells (dose 1.5 (dose unit not given)) is on record as 89%; with Hela cells (dose 3.1 (dose unit not given)), 100%; with Hela cells (dose 6.2 (dose unit not given)), 98%; in the data set with Hela cells (setting [3]) it was 111%; in the data set with Hela cells (dose 25 (dose unit not given)) it was 74,95%; with Hela cells (dose 50 (dose unit not given)), 86%. For the same compound, the “% of controls” value in the data set on Hela cells (dose 100 (dose unit not given)) came out at 10%.
